The conditions of data set [1]: NH4Cl 10 mM.
Description: Isolation of Lysosomes: ARPE-19 cells were detached with 0.25% trypsin, centrifuged at 1000 rpm for 5 minutes, and resuspended in 0.25M sucrose with 5 mM ATP in 10 mM Tris buffer (pH 7.4 with HCl). After homogenization, samples were spun at 1000×g (10 min). The supernatant was centrifuged (20,000×g, 10 min) and the pellet was resuspended in a 0.25 M sucrose buffer with 8 mM CaCl2 in Tris-HCl buffer (pH 7.4) to lyse mitochondria (15 min, 35° C.). […] After isolation, lysosomes were diluted 1:10 in a 150 mM KCl solution in Tris-HCl (pH 7.4) and pelleted at 25,000×g. The pellet was then resuspended in 5 μM Lysosensor dye. Cells were washed 2× by centrifugation (25,000×g, 15 min), resuspended in test or control solutions including 5 mM MgATP, plated into a 96 well plate (50 μl/well) and the pH was measured as above.
Data set [2] deals with ARPE-19 cells. Nature of the data set: Lysosomal pH (pHL) with LysoSensor Yellow/Blue, high through-put screen. In kind it is cell-based, human. The conditions noted are these: for effect on pHL, agent alone: cells without other alkalinizing agent, NH4Cl 10 mM, BAF 200 nM, CHQ 20 μM, CFTR-172 10 μM, LDL 10 μg/ml, others not given. The protocol:
Lysosensor Yellow/Blue co-localized with the Lysotracker Red dye in small vesicles, with a distribution consistent with lysosomal origin. Measurements of pHL were performed using a high throughput screening (HTS) protocol to maximize output and minimize variation using ARPE-19 cells in 96 well plates. […] Loading for 5 min. at 23° C. with 5 μM lysosensor, followed by 15 min. for internalization, produced stable and reproducible results.
The ratio was converted to pH by calibrating with KCl buffered to pH 4.0-6.0 in the presence of monensin and nigericin. Calibration indicated a baseline pH of 4.4 to 4.5, supporting lysosomal localization. […] NH4Cl decreased the ratios slightly at 380 nm. Nevertheless, absent the addition of the dye, none of these compounds, or any others, altered the fluorescent signal at 340 or 380 nm, showing a specificity of the measured change to pHL. […] This quantification is necessary to predict the potential effectiveness of acidifying drugs to restore lysosomal enzyme activity.
Extensive trials determined that the optimal response is obtained with 5 minute dye loading and 15 minute post-incubation. […] All reagents were from Sigma Chemical Corp. unless otherwise indicated.
In general, each condition below used 3-12 independent wells per plate, in 3-6 separate plates. As levels from individual plates varied, data was normalized to the mean pHL for control wells from each plate. Fluorescent ratios were converted to pH following calibration performed on each plate as described. Incubation with Lysosensor Yellow/Blue was kept constant and all measurements were performed 15 min after removal of dye from the bath to ensure continuity. Significance was determined with a one-way ANOVA and Tukey post test. Drugs were always tested on control cells to ensure modification of healthy RPE cells was minimal, and cells were not exposed to dye to make sure effects were specific. All background was subtracted from the fluorescence excited at 340 and 380 nm independently before calculation of the ratio.

The test system of data set [3] is ARPE-19 cells. The data set is described as follows: Toxicity of A2E to cultured cells. The following applies: A2E 100 nM, over a period of 1-2 weeks. In kind it is cell-based, human. How it is done:
Holz and colleagues previously reported A2E responses, but the increase in pHL required four weeks of feeding the cells with A2E (14 nM) every 3-4 days, and the A2E was complexed to low-density lipoprotein (LDL; 10 μg/ml) (Holz et al., supra, 1999). […] To reduce the lengthy time course, higher concentrations of A2E (100 nM) were tested, but the cells were killed over a period of 1-2 weeks. Therefore, alternative methods were needed to permit timely testing of the effect of pH on lysosomal activity in the RPE cells.

Data set [4] deals with LC3BII and p62 in ARPE-19 cells. Nature of the data set: Western blot of autophagy markers. In kind it is cell-based, human. The conditions noted are these: Western blot quantification. The source says:
While the RPE cells must degrade phagocytosed outer segments, they must also degrade and dispose of their own waste material through a process termed autophagy. The ability of P2X7 receptor stimulation to rapidly raise levels of autophagy markers LC3BII and p62 are consistent with the effects of raising lysosomal pH, for they imply that lysosomal alkalinization prevents the RPE cell from degrading material from autopagic vesicles containing p62 or tagged with LC3BII. (See, Kabeya, Y., et al., “LC3, a mammalian homolog of yeast Apg8p, is localized in autophagosome membranes after processing.” EMBO J., 22:[…] (2003); Moscat, J. and Diaz-Meco, M. T. (2009) “p62 at the Crossroads of Autophagy, Apoptosis, and Cancer,” Cell 137:1001-1004 (2009)).

For data set [5], the system named is Cathepsin-D activity in ARPE-19 cells. The data set is described as follows: Cathepsin-D activity monitored with a fluorescent reporter. The format is cell-based, human. The following applies: addition of BzATP. The source says: In FIG. 13C, it is shown that BzATP reduced lysosomal enzyme activity. […] Cathepsin D is the major lysosomal protease responsible for degrading photoreceptors in the RPE, and thus changes to cathepsin D activity reflect the ability of the lysosomes to successfully degrade (dispose of) phagocytosed outer segments. […] Consequently, by applying exogenous antagonists to the P2X7 and P2Y12 receptors (i.e., P2X7 receptor-antagonist, and/or P2Y12 receptor-antagonist), the resulting pH elevation by endogenously released ATP is inhibited or prevented, thereby enhancing degradation of the metabolic waste by the lysosomes, reducing autofluorescent lipofuscin accumulation, and thus reducing the onset or progression of AMD.

For the compound `Cl.N` [NH4Cl], the “340/380 ratio in isolated lysosomes” value in data set [1] is reported as “increased the 340/380 ratio”. For the same compound, the “effect on pHL, agent alone” value with ARPE-19 cells [2] was “pH was elevated”.
Consider `CC(C=CC1=C(C)CCCC1(C)C)=CC=CC(C)=Cc1cc(C=CC=C(C)C=CC2=C(C)CCCC2(C)C)cc[n+]1CCO` [A2E, N-retinylidene-N-retinylethanolamine], for which the “increase in pHL” value in the data set with ARPE-19 cells [2] (ARPE-19 cells, A2E (14 nM) fed for 4 weeks) stood at 0.4 units. The cell killing result with ARPE-19 cells [3] is “killed”.
As to BzATP, the “effect on pHL, agent alone” value in the data set on ARPE-19 cells [2] is “elevation of the lysosomal pHL”. Also, in data set [4], the LC3BII level entry is on record as “rapid increases” and the p62 level entry is on record as “rapid increases”. Further, the Cathepsin-D activity entry in data set [5] is recorded as “visibly decreased”.

Source of the values: patent US8828966B2, “Method for treatment of macular degeneration by modulating P2Y12 or P2X7 receptors” (priority 2006, dated 2014).
